Drawing on patent US20250002507A1, “7,8-DIHYDRO-5H-1,6-NAPHTHYRIDINE DERIVATIVES AS POSITIVE ALLOSTERIC MODULATORS OF THE MUSCARINIC ACETYLCHOLINE RECEPTOR M4 FOR TREATING NEUROLOGICAL AND PSYCHIATRIC DISORDERS” (Vanderbilt University, priority 2021, published 2025), this text covers Emax and EC50 for 24 molecules.

Like-named read-outs stand apart in the source and are kept apart here.

The target in this assay is T1, Human M4 (Homo sapiens, UniProt P08173).
T1 construct: expressed in transfected cells
T1 sequence (P08173 1-479): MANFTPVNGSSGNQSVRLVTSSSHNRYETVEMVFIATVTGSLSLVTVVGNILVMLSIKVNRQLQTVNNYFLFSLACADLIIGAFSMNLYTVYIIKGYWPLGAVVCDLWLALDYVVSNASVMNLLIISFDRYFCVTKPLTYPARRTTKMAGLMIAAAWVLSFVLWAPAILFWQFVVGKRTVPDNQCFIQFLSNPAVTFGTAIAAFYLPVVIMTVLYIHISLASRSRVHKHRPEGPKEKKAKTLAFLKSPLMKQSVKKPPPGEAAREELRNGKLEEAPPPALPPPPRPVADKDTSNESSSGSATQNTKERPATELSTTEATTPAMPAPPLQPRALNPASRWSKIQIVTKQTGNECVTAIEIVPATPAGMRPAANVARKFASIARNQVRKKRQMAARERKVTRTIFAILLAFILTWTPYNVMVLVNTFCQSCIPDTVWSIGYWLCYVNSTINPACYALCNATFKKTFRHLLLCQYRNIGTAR
Put plainly: mAChR M4 cell-based functional assay (calcium flux, potentiation of EC20 acetylcholine response), hM4-Gqi5 CHO-K1 cells. The following applies: for Emax at 30 µM: CHO-K1, % ACh maximum at 30 μM; for EC50: calcium flux, read-out: Human M4 EC50. The method, boiled down: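 Positive allosteric modulation was scored as a concentration-dependent rise in the response to an EC20 dose of acetylcholine, added 144 s after the compound. Human M4-Gqi5 CHO-K1 cells carried Fluo-4 dye, and compounds ran as 11-point, 3-fold dilution series. EC50 and Emax came from four-parameter logistic fits of the FDSS fluorescence-ratio traces.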
A general note: A change in cytosolic calcium serves as a functional read-out for many receptors and channels.

The mark [1] stands for this setting: hM4-Gqi5 CHO-K1 cells, PAM of EC20 acetylcholine.
The mark [2] stands for this setting: Table 3, Human M4, read-out: Emax (% ACh maximum at 30 μM).
Where [3] appears, read: Table 3, potentiation of EC20 acetylcholine response, CHO-K1 cells.

The Emax is the maximal effect, on the per cent scale that the assay sets. By EC50 is commonly meant the concentration giving half of the maximal effect. On to `Cc1c(N2CCc3ncc(NCc4cccc(F)c4)cc3C2)nn2cnnc2c1C` [Compound 18, 6-(7,8-dimethyl-[1,2,4]triazolo[4,3-b]pyridazin-6-yl)-N-[(3-fluorophenyl)methyl]-7,8-dihydro-5H-1,6-naphthyridin-3-amine], for which the Emax at 30 µM (human M4, read-out: Emax) is 47%. Under setting [1], the EC50 worked out at 798 nM.

For the molecule `Cc1c(N2CCc3ncc(-c4cccnc4F)cc3C2)nn2cnnc2c1C` [Compound 183, 6-(7,8-dimethyl-[1,2,4]triazolo[4,3-b]pyridazin-6-yl)-3-(2-fluoropyridin-3-yl)-5,6,7,8-tetrahydro-1,6-naphthyridine], the Emax at 30 µM under setting [2] was 93%. Moreover, the EC50 under setting [3] is 695 nM.

Regarding `Cc1c(N2CCc3ncc(N4CCCn5nccc54)cc3C2)nn2c(C(F)(F)F)nnc2c1C` [Compound 267, 3-(6,7-dihydropyrazolo[1,5-a]pyrimidin-4(5H)-yl)-6-(7,8-dimethyl-3-(trifluoromethyl)-[1,2,4]triazolo[4,3-b]pyridazin-6-yl)-5,6,7,8-tetrahydro-1,6-naphthyridine], under setting [2], the Emax at 30 µM was 100%. In addition, under setting [3], the EC50 came out at 37 nM.

For the molecule `Cc1cnc2c(c1)CN(c1nn3cc(C(=O)NC4CC4)nc3cc1C)CC2` [Compound 168, N-cyclopropyl-7-methyl-6-(3-methyl-7,8-dihydro-1,6-naphthyridin-6(5H)-yl)imidazo[1,2-b]pyridazine-2-carboxamide], the Emax at 30 µM under setting [2] is 54%. Under setting [3], the EC50 came to 3250 nM.

As to `Cc1cc2nccn2nc1N1CCc2ncc(C(F)(F)F)cc2C1` [Compound 188, 6-(7-methylimidazo[1,2-b]pyridazin-6-yl)-3-(trifluoromethyl)-5,6,7,8-tetrahydro-1,6-naphthyridine], the Emax at 30 µM under setting [2] stood at 69%. Further, the EC50 under setting [3] came to 523 nM.

With `Cc1c(N2CCc3ncc(NC(=O)C4CC4)cc3C2)nn2cnnc2c1C` [Compound 14, N-[6-(7,8-dimethyl-[1,2,4]triazolo[4,3-b]pyridazin-6-yl)-7,8-dihydro-5H-1,6-naphthyridin-3-yl]cyclopropanecarboxamide], the Emax at 30 µM (human M4, read-out: Emax) came to 76%. Further, under setting [1], the EC50 amounted to 1150 nM.

Turning to `Cc1c(N2CCc3ncc(-c4ccc(N5CCOCC5)cc4)cc3C2)nn2cnnc2c1C` [Compound 223, 4-(4-(6-(7,8-dimethyl-[1,2,4]triazolo[4,3-b]pyridazin-6-yl)-5,6,7,8-tetrahydro-1,6-naphthyridin-3-yl)phenyl)morpholine], the Emax at 30 µM under setting [2] worked out at 95%. Also, the EC50 under setting [3] turned out to be 329 nM.

`Cc1nc(C)c(-c2cnc3c(c2)CN(c2nn4cnnc4c(C)c2C)CC3)s1` [Compound 61, 5-[6-(7,8-dimethyl-[1,2,4]triazolo[4,3-b]pyridazin-6-yl)-7,8-dihydro-5H-1,6-naphthyridin-3-yl]-2,4-dimethyl-thiazole]: the Emax at 30 µM (human M4, read-out: Emax) came out at 89%. The EC50 under setting [1] came to 171 nM.

Take `Cc1c(N2CCc3ncc(C(=O)NCCN4CCCC4)cc3C2)nn2cnnc2c1C` [Compound 125, 6-(7,8-dimethyl-[1,2,4]triazolo[4,3-b]pyridazin-6-yl)-N-(2-pyrrolidin-1-ylethyl)-7,8-dihydro-5H-1,6-naphthyridine-3-carboxamide]: the maximal response (Emax) at 30 µM (human M4, read-out: Emax) was determined as 85%. For the same molecule, the EC50 under setting [1] was 7200 nM.

Take `COc1ccc(-c2cnc3c(c2)CN(c2nn4c(C(F)(F)F)nnc4c(C)c2C)CC3)cn1` [Compound 258, 6-(7,8-dimethyl-3-(trifluoromethyl)-[1,2,4]triazolo[4,3-b]pyridazin-6-yl)-3-(6-methoxypyridin-3-yl)-5,6,7,8-tetrahydro-1,6-naphthyridine]: the Emax at 30 µM under setting [2] came to 77%. Moreover, the EC50 under setting [3] came out at 578 nM.

On to `Cc1cc2nncn2nc1N1CCc2ncc(-c3c(C)nn(C)c3C)cc2C1` [Compound 104, 6-(7-methyl-[1,2,4]triazolo[4,3-b]pyridazin-6-yl)-3-(1,3,5-trimethylpyrazol-4-yl)-7,8-dihydro-5H-1,6-naphthyridine], for which, under “human M4, read-out: Emax”, the Emax at 30 µM came to 91%. The EC50 under setting [1] came to 398 nM.

`Cc1cc(Nc2cnc3c(c2)CN(c2nn4cnnc4cc2C)CC3)c(F)cn1` [Compound 362, N-(5-fluoro-2-methylpyridin-4-yl)-6-(7-methyl-[1,2,4]triazolo[4,3-b]pyridazin-6-yl)-5,6,7,8-tetrahydro-1,6-naphthyridin-3-amine]: the Emax at 30 µM (Table 4, Human M4, read-out: Emax (% ACh maximum at 30 μM)) is 97%. Also, the EC50 (Table 4, potentiation of EC20 acetylcholine response, CHO-K1 cells) is 51 nM.

Take `Cc1c(N2CCc3ncc(Nc4cccc(Cl)c4F)cc3C2)nn2cnnc2c1C` [Compound 67, N-(3-chloro-2-fluoro-phenyl)-6-(7,8-dimethyl-[1,2,4]triazolo[4,3-b]pyridazin-6-yl)-7,8-dihydro-5H-1,6-naphthyridin-3-amine]: the Emax at 30 µM (human M4, read-out: Emax) is 86%. The EC50 under setting [1] was 219 nM.

Consider `Cc1c(N2CCc3ncc(-c4cnn(C5CCCCC5)c4)cc3C2)nn2c(C(F)(F)F)nnc2c1C` [Compound 253, 3-(1-cyclohexyl-1H-pyrazol-4-yl)-6-(7,8-dimethyl-3-(trifluoromethyl)-[1,2,4]triazolo[4,3-b]pyridazin-6-yl)-5,6,7,8-tetrahydro-1,6-naphthyridine], for which the Emax at 30 µM under setting [2] came out at 42%. Also, the concentration for a half-maximal effect (EC50) under setting [3] was 1690 nM.

For `Cc1cc2nncn2nc1N1CCc2ncc(Nc3ccnn3C)cc2C1` [Compound 190, N-(1-methyl-1H-pyrazol-5-yl)-6-(7-methyl-[1,2,4]triazolo[4,3-b]pyridazin-6-yl)-5,6,7,8-tetrahydro-1,6-naphthyridin-3-amine], the maximal effect (Emax) at 30 µM under setting [2] worked out at 102%. Besides, the EC50 under setting [3] turned out to be 234 nM.

Take `Cc1c(N2CCc3ncc(Oc4cccc(F)c4F)cc3C2)nn2c(C(F)(F)F)nnc2c1C` [Compound 300, 3-(2,3-difluorophenoxy)-6-(7,8-dimethyl-3-(trifluoromethyl)-[1,2,4]triazolo[4,3-b]pyridazin-6-yl)-5,6,7,8-tetrahydro-1,6-naphthyridine]: the Emax at 30 µM under setting [2] stood at 87%. The EC50 under setting [3] was 969 nM.

Take `Cc1cnc2c(c1)CN(c1nn3cc(C(=O)N4CCCCC4)nc3cc1C)CC2` [Compound 170, (7-methyl-6-(3-methyl-7,8-dihydro-1,6-naphthyridin-6(5H)-yl)imidazo[1,2-b]pyridazin-2-yl)(piperidin-1-yl)methanone]: under setting [2], the Emax at 30 µM worked out at 105%. The EC50 under setting [3] came to 934 nM.

As to `Cc1c(N2CCc3ncc(C(=O)Nc4ccccc4F)cc3C2)nn2cnnc2c1C` [Compound 59, 6-(7,8-dimethyl-[1,2,4]triazolo[4,3-b]pyridazin-6-yl)-N-(2-fluorophenyl)-7,8-dihydro-5H-1,6-naphthyridine-3-carboxamide], where the note is “human M4, read-out: Emax”, the Emax at 30 µM is 89%. Besides, the EC50 under setting [1] was found to be 695 nM.

`Cc1c(N2CCc3ncc(Oc4ccccc4F)cc3C2)nn2cnnc2c1C` [Compound 159, 6-(7,8-dimethyl-[1,2,4]triazolo[4,3-b]pyridazin-6-yl)-3-(2-fluorophenoxy)-5,6,7,8-tetrahydro-1,6-naphthyridine]: under setting [2], the Emax at 30 µM is 109%. The EC50 under setting [3] came out at 107 nM.

Regarding `Cc1nc(C)c(-c2cnc3c(c2)CN(c2nn4cnnc4cc2C)CC3)s1` [Compound 195, 2,4-dimethyl-5-(6-(7-methyl-[1,2,4]triazolo[4,3-b]pyridazin-6-yl)-5,6,7,8-tetrahydro-1,6-naphthyridin-3-yl)thiazole], under setting [2], the Emax at 30 µM was 89%. Also, the EC50 under setting [3] turned out to be 200 nM.

Take `Cc1c(N2CCc3ncc(Nc4cccc(C(F)(F)F)c4F)cc3C2)nn2cnnc2c1C` [Compound 66, 6-(7,8-dimethyl-[1,2,4]triazolo[4,3-b]pyridazin-6-yl)-N-[2-fluoro-3-(trifluoromethyl)phenyl]-7,8-dihydro-5H-1,6-naphthyridin-3-amine]: the Emax at 30 µM (human M4, read-out: Emax) came out at 95%. In addition, under setting [1], the EC50 stood at 882 nM.

Consider `Cc1cc(-c2cnc3c(c2)CN(c2nn4cnnc4c(C)c2C)CC3)cc(Cl)n1` [Compound 35, 3-(2-chloro-6-methyl-4-pyridyl)-6-(7,8-dimethyl-[1,2,4]triazolo[4,3-b]pyridazin-6-yl)-7,8-dihydro-5H-1,6-naphthyridine], for which the Emax at 30 µM (human M4, read-out: Emax) was determined as 78%. In addition, under setting [1], the EC50 was 1900 nM.

For `COc1ccc2c(c1)CCCN2c1cnc2c(c1)CN(c1nn3c(C(F)(F)F)nnc3c(C)c1C)CC2` [Compound 229, 6-(7,8-dimethyl-3-(trifluoromethyl)-[1,2,4]triazolo[4,3-b]pyridazin-6-yl)-3-(6-methoxy-3,4-dihydroquinolin-1(2H)-yl)-5,6,7,8-tetrahydro-1,6-naphthyridine], the Emax at 30 µM under setting [2] was 48%. Also, under setting [3], the EC50 amounted to 590 nM.

Turning to `Cc1ccc(Oc2cnc3c(c2)CN(c2nn4c(C(F)(F)F)nnc4c(C)c2C)CC3)c(F)c1` [Compound 291, 6-(7,8-dimethyl-3-(trifluoromethyl)-[1,2,4]triazolo[4,3-b]pyridazin-6-yl)-3-(2-fluoro-4-methylphenoxy)-5,6,7,8-tetrahydro-1,6-naphthyridine], the Emax at 30 µM under setting [2] came to 67%. Moreover, the EC50 under setting [3] is 1880 nM.
